Where only a bound is given, the exact number is not on record here.

The target in assay [1] is T1, follicle-stimulating hormone (FSH) receptor (Rattus norvegicus, UniProt P20395).
T1 construct: endogenous in cells; host or cells: rat granulosa cells
T1 sequence (P20395 18-692): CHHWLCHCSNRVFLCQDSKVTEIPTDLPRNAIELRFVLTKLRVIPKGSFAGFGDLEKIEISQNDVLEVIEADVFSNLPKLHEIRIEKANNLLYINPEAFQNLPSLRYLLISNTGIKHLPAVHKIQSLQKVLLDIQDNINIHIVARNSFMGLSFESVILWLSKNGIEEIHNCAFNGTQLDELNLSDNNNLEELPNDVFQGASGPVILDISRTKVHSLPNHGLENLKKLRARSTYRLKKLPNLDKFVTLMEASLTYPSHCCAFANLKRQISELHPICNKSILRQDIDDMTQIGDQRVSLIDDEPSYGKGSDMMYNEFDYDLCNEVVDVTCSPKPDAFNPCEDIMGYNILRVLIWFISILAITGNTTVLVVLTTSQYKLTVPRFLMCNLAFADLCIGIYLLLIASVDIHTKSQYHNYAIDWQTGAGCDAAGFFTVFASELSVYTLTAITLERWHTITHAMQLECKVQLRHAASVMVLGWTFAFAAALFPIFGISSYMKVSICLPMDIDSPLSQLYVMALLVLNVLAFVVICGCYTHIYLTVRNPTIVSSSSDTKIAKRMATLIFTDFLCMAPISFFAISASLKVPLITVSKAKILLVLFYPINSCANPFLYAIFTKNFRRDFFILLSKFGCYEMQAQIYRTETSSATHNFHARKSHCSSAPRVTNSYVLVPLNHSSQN
Briefly: Rat granulosa EC50 FSH (Assay B). It counts as cell-based. The procedure:
Example 25. Rat granulosa EC50 FSH (Assay B)
The assay was performed pursuant to the teaching of Yanofsky et al. (2006) Allosteric activation of the follicle-stimulating hormone (FSH) receptor by selective, nonpeptide agonists (JBC 281(19): 13226-13233, which is incorporated by reference in the disclosure of the invention).

Assay [2] deals with T2, FSHR (Homo sapiens, UniProt P23945).
T2 construct: expressed in transfected cells; host or cells: CHO (Cho-FSHR-LUC-1-1-43)
T2 sequence (P23945 18-695): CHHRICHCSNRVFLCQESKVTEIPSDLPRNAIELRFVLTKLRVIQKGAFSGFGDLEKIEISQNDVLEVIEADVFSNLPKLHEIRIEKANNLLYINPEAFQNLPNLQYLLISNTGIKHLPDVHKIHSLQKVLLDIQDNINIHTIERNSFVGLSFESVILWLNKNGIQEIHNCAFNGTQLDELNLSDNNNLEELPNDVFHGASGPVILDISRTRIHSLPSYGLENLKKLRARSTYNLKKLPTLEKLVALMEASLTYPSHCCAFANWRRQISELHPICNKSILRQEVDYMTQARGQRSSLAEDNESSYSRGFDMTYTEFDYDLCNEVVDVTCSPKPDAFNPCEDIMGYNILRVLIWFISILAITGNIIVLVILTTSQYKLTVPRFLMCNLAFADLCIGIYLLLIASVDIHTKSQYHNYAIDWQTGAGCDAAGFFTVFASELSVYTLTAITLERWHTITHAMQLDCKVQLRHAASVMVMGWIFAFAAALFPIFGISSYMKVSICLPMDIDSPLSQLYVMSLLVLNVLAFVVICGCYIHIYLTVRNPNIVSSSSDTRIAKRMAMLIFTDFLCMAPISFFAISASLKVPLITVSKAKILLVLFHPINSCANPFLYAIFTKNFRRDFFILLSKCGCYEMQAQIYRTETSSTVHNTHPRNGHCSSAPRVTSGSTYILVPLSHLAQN
Kind of assay: EC50 of cyclic AMP production in CHO FSHR cells + EC20 FSH (Assay A). To be noted: cyclic AMP production in CHO FSHR cells + EC20 FSH (0.265 pM), HTRF. It counts as cell-based. The essentials:
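CHO cells expressing FSHR, stimulated 1 h at 37° C with compound plus EC20 FSH (0.265 pM final) and 200 μM IBMX. cAMP measured by HTRF (665/620 nm ratio) after 1 h at room temperature; effect expressed relative to maximum response of FSH standard.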
(In general: Time-resolved FRET reads energy transfer from a long-lived donor to a nearby acceptor.)

With `COc1cc(OC)cc(-n2nc(C(=O)N3CCOCC3(C)C)c3c2-c2cc(-c4cncc(C#N)c4)c(OC)cc2OC3)c1` [Compound 44, 5-(1-(3,5-dimethoxyphenyl)-3-(3,3-dimethylmorpholine-4-carbonyl)-7-methoxy-1,4-dihydrochromeno[4,3-c]pyrazol-8-yl)nicotinonitrile], the EC50 (as a rule, the midpoint of the concentration-response curve) in assay [1] is 10 to 100 nM; in assay [2], less than 10 nM.
Consider `COc1cc2c(cc1-c1ccn(C)n1)-c1c(c(C(=O)N3CCOCC3(C)C)nn1-c1cc(C)cc(Cl)c1)CO2` [Compound 31, (1-(3-chloro-5-methylphenyl)-7-methoxy-8-(1-methyl-1H-pyrazol-3-yl)-1,4-dihydrochromeno[4,3-c]pyrazol-3-yl)(3,3-dimethylmorpholino)methanone], for which the results for the EC50 in assay [1] and in assay [2] were 101 to 500 nM and 10 to 100 nM, respectively.
Take `COc1cc(OC)cc(-n2nc(C(=O)N(C)C(C)(C)CCO)c3c2-c2cc(-c4ccn(C)n4)c(OC)cc2OC3)c1` [Compound 134, 1-(3,5-dimethoxyphenyl)-N-(4-hydroxy-2-methylbutan-2-yl)-7-methoxy-N-methyl-8-(1-methyl-1H-pyrazol-3-yl)-1,4-dihydrochromeno[4,3-c]pyrazole-3-carboxamide]: the figures for the EC50 in assay [1] and in assay [2] were greater than 500 nM and 10 to 100 nM, respectively.
Turning to `COc1cc2c(cc1C1CC1C(N)=O)-c1c(c(C(=O)N(C)C(C)(C)C)nn1-c1cc(Cl)cc(Cl)c1)CO2` (stereo not drawn) [Compound 199], the results for the EC50 in assay [1] and in assay [2] were 101 to 500 nM and less than 10 nM, respectively.
Taken in the same sequence, the figures for `COc1cc2c(cc1-c1cc(C(N)=O)ccc1F)-c1c(c(C(=O)N(C)C(C)(C)C)nn1-c1cc(Cl)cc(Cl)c1)CO2` [Compound 93, N-tert-butyl-8-(5-carbamoyl-2-fluorophenyl)-1-(3,5-dichlorophenyl)-7-methoxy-N-methyl-1,4-dihydrochromeno[4,3-c]pyrazole-3-carboxamide] were 10 to 100 nM and less than 10 nM.
Taken in the same sequence, the figures for `COc1cc2c(cc1-c1ccn(C)n1)-c1c(c(C(=O)N3CCC(O)CC3(C)C)nn1-c1cc(Cl)cc(Cl)c1)CO2` (stereo not drawn) [Compound 7, (1-(3,5-dichlorophenyl)-7-methoxy-8-(1-methyl-1H-pyrazol-3-yl)-1,4-dihydrochromeno[4,3-c]pyrazol-3-yl)(4-hydroxy-2,2-dimethylpiperidin-1-yl)methanone] were 101 to 500 nM and 10 to 100 nM.
On to `COc1cc2c(cc1CC(C)C)-c1c(c(C(=O)N3CCC(=O)CC3(C)C)nn1-c1ccsc1)CO2` [Compound 125, 1-(8-isobutyl-7-methoxy-1-(thiophen-3-yl)-1,4-dihydrochromeno[4,3-c]pyrazole-3-carbonyl)-2,2-dimethylpiperidin-4-one], for which the EC50 is 10 to 100 nM in assay [1] and less than 10 nM in assay [2].
Taken in the same sequence, the figures for `COc1cc2c(cc1-c1cncc(C(N)=O)c1)-c1c(c(C(=O)N(C)C(C)(C)C(N)=O)nn1-c1cc(F)cc(F)c1)CO2` [Compound 104, N-(1-amino-2-methyl-1-oxopropan-2-yl)-8-(5-carbamoylpyridin-3-yl)-1-(3,5-difluorophenyl)-7-methoxy-N-methyl-1,4-dihydrochromeno[4,3-c]pyrazole-3-carboxamide] were greater than 500 nM and 10 to 100 nM.
Consider `CCOC(=O)C1CC1c1cc2c(cc1OC)OCc1c(C(=O)N(C)C(C)(C)C)nn(-c3cc(Cl)cc(Cl)c3)c1-2` (stereo not drawn) [Compound 196], for which the EC50 is 101 to 500 nM in assay [1] and less than 10 nM in assay [2].
Taken in the same sequence, the figures for `COc1cc(F)cc(-n2nc(C(=O)N(C)C(C)(C)C)c3c2-c2cc(-c4cncc(C#N)c4)c(OC)cc2OC3)c1` [Compound 54, N-tert-butyl-8-(5-cyanopyridin-3-yl)-1-(3-fluoro-5-methoxyphenyl)-7-methoxy-N-methyl-1,4-dihydrochromeno[4,3-c]pyrazole-3-carboxamide] were 10 to 100 nM and less than 10 nM.
In the case of `COc1cc2c(cc1-c1ccn(C)n1)-c1c(c(C(=O)N(C)C(C)(C)C)nn1-c1cc(Cl)cc(C(F)(F)F)c1)CO2` [Compound 64, N-tert-butyl-1-(3-chloro-5-(trifluoromethyl)phenyl)-7-methoxy-N-methyl-8-(1-methyl-1H-pyrazol-3-yl)-1,4-dihydrochromeno[4,3-c]pyrazole-3-carboxamide], the figures for the EC50 in assay [1] and in assay [2] were 101 to 500 nM and 10 to 100 nM, respectively.
In the case of `COc1cc2c(cc1-c1cncc(C#N)c1)-c1c(c(C(=O)N3CCC(O)CC3(C)C)nn1-c1cc(F)cc(F)c1)CO2` (stereo not drawn) [Compound 50, 5-(1-(3,5-difluorophenyl)-3-(4-hydroxy-2,2-dimethylpiperidine-1-carbonyl)-7-methoxy-1,4-dihydrochromeno[4,3-c]pyrazol-8-yl)nicotinonitrile], the concentration for a half-maximal effect (EC50) is 101 to 500 nM in assay [1] and less than 10 nM in assay [2].
Taken in the same sequence, the figures for `COc1cc2c(cc1-c1cnn(CC(O)CO)c1)-c1c(c(C(=O)N(C)C(C)(C)C)nn1-c1cc(Cl)cc(Cl)c1)CO2` (stereo not drawn) [Compound 190, N-tert-butyl-1-(3,5-dichlorophenyl)-8-(1-(2,3-dihydroxypropyl)-1H-pyrazol-4-yl)-7-methoxy-N-methyl-1,4-dihydrochromeno[4,3-c]pyrazole-3-carboxamide] were greater than 500 nM and 10 to 100 nM.
With `COc1cc2c(cc1-c1cc(C)cnc1OC)-c1c(c(C(=O)N(C)C(C)(C)C)nn1-c1cc(Cl)cc(Cl)c1)CO2` [Compound 189, N-tert-butyl-1-(3,5-dichlorophenyl)-7-methoxy-8-(2-methoxy-5-methylpyridin-3-yl)-N-methyl-1,4-dihydrochromeno[4,3-c]pyrazole-3-carboxamide], the EC50 in assay [1] lay in the range of 101 to 500 nM; in assay [2], 10 to 100 nM.
Take `COc1cc(OC)cc(-n2nc(C(=O)N(C)C(C)(C)C)c3c2-c2cc(-c4ccn(C)n4)c(OC)cc2OC3)c1` [Compound 37, N-tert-butyl-1-(3,5-dimethoxyphenyl)-7-methoxy-N-methyl-8-(1-methyl-1H-pyrazol-3-yl)-1,4-dihydrochromeno[4,3-c]pyrazole-3-carboxamide]: the results for the EC50 in assay [1] and in assay [2] were greater than 500 nM and 10 to 100 nM, respectively.
As to `COc1cc2c(cc1-c1cncc(CO)c1)-c1c(c(C(=O)N(C)C(C)(C)C#N)nn1-c1cc(Cl)cc(Cl)c1)CO2` [Compound 108, N-(2-cyanopropan-2-yl)-1-(3,5-dichlorophenyl)-8-(5-(hydroxymethyl)pyridin-3-yl)-7-methoxy-N-methyl-1,4-dihydrochromeno[4,3-c]pyrazole-3-carboxamide], the EC50 in assay [1] was 10 to 100 nM; in assay [2] it was less than 10 nM.
Taken in the same sequence, the figures for `COc1cc2c(cc1-c1cc(C(N)=O)ccn1)-c1c(c(C(=O)N(C)C(C)(C)C#N)nn1-c1cc(Cl)cc(Cl)c1)CO2` [Compound 120, 8-(4-carbamoylpyridin-2-yl)-N-(2-cyanopropan-2-yl)-1-(3,5-dichlorophenyl)-7-methoxy-N-methyl-1,4-dihydrochromeno[4,3-c]pyrazole-3-carboxamide] were 10 to 100 nM and less than 10 nM.
As to `COc1cc2c(cc1-c1ccn(C)n1)-c1c(c(C(=O)N(C)C(C)(C)C)nn1-c1cc(Cl)cc(Cl)c1)CO2` [Compound 4, N-tert-butyl-1-(3,5-dichlorophenyl)-7-methoxy-N-methyl-8-(1-methyl-1H-pyrazol-3-yl)-1,4-dihydrochromeno[4,3-c]pyrazole-3-carboxamide], the values for the EC50 in assay [1] and in assay [2] were greater than 500 nM and 10 to 100 nM, respectively.
